In patent publication US20090311217A1, “3-SUBSTITUTED-1H-INDOLE COMPOUNDS, THEIR USE AS MTOR KINASE AND PI3 KINASE INHIBITORS, AND THEIR SYNTHESES” (priority 2008, published 2009):

Target: PI3K-alpha (Homo sapiens, UniProt P42336)
Test: PI3K-alpha fluorescence polarization assay
Assay type: biochemical
Conditions: PI3Kα Avg. IC50

PI3K-alpha, sequence (P42336 whole entry, species assumed): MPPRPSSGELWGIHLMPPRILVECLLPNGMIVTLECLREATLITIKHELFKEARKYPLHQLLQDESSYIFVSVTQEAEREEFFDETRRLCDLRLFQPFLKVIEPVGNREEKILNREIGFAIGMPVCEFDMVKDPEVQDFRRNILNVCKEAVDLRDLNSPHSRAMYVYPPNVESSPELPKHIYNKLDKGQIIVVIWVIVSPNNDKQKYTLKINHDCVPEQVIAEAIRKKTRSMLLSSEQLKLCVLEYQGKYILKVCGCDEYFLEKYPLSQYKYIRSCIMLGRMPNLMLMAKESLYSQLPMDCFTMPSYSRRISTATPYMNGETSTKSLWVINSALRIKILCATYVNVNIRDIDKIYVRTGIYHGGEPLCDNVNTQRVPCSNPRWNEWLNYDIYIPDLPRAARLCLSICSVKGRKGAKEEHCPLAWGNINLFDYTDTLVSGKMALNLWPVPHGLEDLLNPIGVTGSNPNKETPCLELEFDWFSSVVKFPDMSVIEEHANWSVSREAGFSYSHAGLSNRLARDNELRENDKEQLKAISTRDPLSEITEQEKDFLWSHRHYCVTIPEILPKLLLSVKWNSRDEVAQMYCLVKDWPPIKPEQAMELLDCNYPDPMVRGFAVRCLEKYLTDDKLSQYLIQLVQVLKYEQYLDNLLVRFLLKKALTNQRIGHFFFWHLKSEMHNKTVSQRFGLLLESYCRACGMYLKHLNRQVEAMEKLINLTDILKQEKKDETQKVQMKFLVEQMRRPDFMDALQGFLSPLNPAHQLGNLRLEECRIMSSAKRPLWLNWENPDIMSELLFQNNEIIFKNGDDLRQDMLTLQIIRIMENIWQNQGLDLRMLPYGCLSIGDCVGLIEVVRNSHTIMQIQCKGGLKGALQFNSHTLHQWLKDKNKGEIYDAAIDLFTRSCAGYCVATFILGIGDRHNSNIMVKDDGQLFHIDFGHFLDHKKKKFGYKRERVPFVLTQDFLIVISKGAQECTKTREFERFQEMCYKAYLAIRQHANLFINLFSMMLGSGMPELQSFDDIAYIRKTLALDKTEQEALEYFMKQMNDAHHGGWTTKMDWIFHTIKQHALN
PI3K-alpha, sequence (P27986 whole entry partner, species assumed): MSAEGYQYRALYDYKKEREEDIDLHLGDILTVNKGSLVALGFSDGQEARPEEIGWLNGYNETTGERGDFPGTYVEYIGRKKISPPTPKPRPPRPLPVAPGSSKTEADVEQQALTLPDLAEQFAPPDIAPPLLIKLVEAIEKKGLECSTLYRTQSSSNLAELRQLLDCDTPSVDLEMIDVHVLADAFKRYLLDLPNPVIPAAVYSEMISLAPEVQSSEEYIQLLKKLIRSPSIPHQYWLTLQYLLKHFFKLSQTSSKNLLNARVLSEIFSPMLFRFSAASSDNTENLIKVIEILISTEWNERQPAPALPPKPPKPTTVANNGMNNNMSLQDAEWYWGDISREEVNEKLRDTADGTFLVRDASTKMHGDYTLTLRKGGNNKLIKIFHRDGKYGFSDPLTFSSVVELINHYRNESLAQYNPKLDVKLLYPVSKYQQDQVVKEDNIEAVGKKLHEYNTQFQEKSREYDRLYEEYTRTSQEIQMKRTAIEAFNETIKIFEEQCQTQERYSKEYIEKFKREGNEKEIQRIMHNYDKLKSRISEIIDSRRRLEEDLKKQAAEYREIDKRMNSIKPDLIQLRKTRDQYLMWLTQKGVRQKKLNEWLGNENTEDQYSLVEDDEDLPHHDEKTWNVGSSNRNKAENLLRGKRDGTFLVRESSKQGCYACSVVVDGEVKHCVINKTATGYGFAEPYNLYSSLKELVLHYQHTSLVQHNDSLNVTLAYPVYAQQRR

| SMILES | IC50 [µM] |
| --- | --- |
| CNC(=O)Oc1ccc2c(c1)C(=O)/C(=C/c1cn(CCN3CCN(C)CC3)c3ccc(OC)cc13)O2 [Compound 546, (2Z)-2-({5-methoxy-1-[2-(4-methylpiperazin-1-yl)ethyl]-1H-indol-3-yl}methylene)-3-oxo-2,3-dihydro-1-benzofuran-5-yl methylcarbamate] | 0.63 |
| COc1ccc2c(c1)c(/C=C1\Oc3cc(OC(=O)N(C)c4ccccc4)ccc3C1=O)c(C)n2CCN1CCN(C)CC1 [Compound 558, (2Z)-2-({5-methoxy-2-methyl-1-[2-(4-methylpiperazin-1-yl)ethyl]-1H-indol-3-yl}methylene)-3-oxo-2,3-dihydro-1-benzofuran-6-yl methyl(phenyl)carbamate] | > 10 |

Same assay, conditions: read-out: PI3Kα Avg. IC50

| SMILES | IC50 [µM] |
| --- | --- |
| COc1cccc2c1O/C(=C\c1c(-c3ccc4ccccc4c3)[nH]c3ccccc13)C2=O [Example 36, (2Z)-7-methoxy-2-{[2-(2-naphthyl)-1H-indol-3-yl]methylene}-1-benzofuran-3(2H)-one] | > 10 |
| O=C1/C(=C/c2c(-c3ccc4ccccc4c3)[nH]c3ccccc23)Sc2ccccc21 [Example 276, (2Z)-2-{[2-(2-naphthyl)-1H-indol-3-yl]methylene}-1-benzothiophen-3(2H)-one] | > 10 |
| COc1cccc2c1O/C(=C\c1c(C)[nH]c3ccc([N+](=O)[O-])cc13)C2=O [Example 38, (2Z)-7-methoxy-2-[(2-methyl-5-nitro-1H-indol-3-yl)methylene]-1-benzofuran-3(2H)-one] | > 10 |
| O=C1/C(=C/c2c[nH]c3ccc(OCc4ccccc4)cc23)Sc2ccc(Cl)cc21 [Example 288, (2Z)-2-{[5-(benzyloxy)-1H-indol-3-yl]methylene}-5-chloro-1-benzothiophen-3(2H)-one] | > 10 |
| Cc1cccc2c(/C=C3\Oc4ccccc4C3=O)c[nH]c12 [Example 23, (2Z)-2-[(7-methyl-1H-indol-3-yl)methylene]-1-benzofuran-3(2H)-one] | > 10 |
| Cc1ccc2c(c1)C(=O)/C(=C/c1c[nH]c3ccc(Br)cc13)S2 [Example 294, (2Z)-2-[(5-bromo-1H-indol-3-yl)methylene]-5-methyl-1-benzothiophen-3(2H)-one] | > 10 |
| Cc1ccc2c(/C=C3\Oc4ccccc4C3=O)c[nH]c2c1 [Example 22, (2Z)-2-[(6-methyl-1H-indol-3-yl)methylene]-1-benzofuran-3(2H)-one] | > 10 |
| COc1cccc2c1O/C(=C\c1c[nH]c3ccc(OCc4ccccc4)cc13)C2=O [Example 43, (2Z)-2-{[5-(benzyloxy)-1H-indol-3-yl]methylene}-7-methoxy-1-benzofuran-3(2H)-one] | > 10 |
| COc1cccc2c1O/C(=C\c1c(C)[nH]c3ccccc13)C2=O [Example 39, (2Z)-7-methoxy-2-[(2-methyl-1H-indol-3-yl)methylene]-1-benzofuran-3(2H)-one] | > 10 |
| Cc1[nH]c2ccc([N+](=O)[O-])cc2c1/C=C1\Oc2cc(O)ccc2C1=O [Example 29, (2Z)-6-hydroxy-2-[(2-methyl-5-nitro-1H-indol-3-yl)methylene]-1-benzofuran-3(2H)-one] | > 10 |
| O=C1/C(=C/c2c[nH]c3ccccc23)Sc2ccc(Cl)cc21 [Example 281, (2Z)-5-chloro-2-(1H-indol-3-ylmethylene)-1-benzothiophen-3(2H)-one] | > 10 |
| Cc1ccc2c(/C=C3\Sc4ccccc4C3=O)c[nH]c2c1 [Example 279, (2Z)-2-[(6-methyl-1H-indol-3-yl)methylene]-1-benzothiophen-3(2H)-one] | > 10 |
| Cn1c(-c2ccccc2)c(C=C2Oc3cc(O)ccc3C2=O)c2ccccc21 [Example 7, 6-hydroxy-2-[(1-methyl-2-phenyl-1H-indol-3-yl)methylene]-1-benzofuran-3(2H)-one] | > 10 |
| Cc1ccc2c(c1)C(=O)C(=Cc1c(-c3ccc(F)cc3)[nH]c3ccccc13)S2 [Example 297, 2-{[2-(4-fluorophenyl)-1H-indol-3-yl]methylene}-5-methyl-1-benzothiophen-3(2H)-one] | > 10 |
| O=C1/C(=C/c2c(-c3ccc(F)cc3)[nH]c3ccccc23)Sc2ccc(Cl)cc21 [Example 286, (2Z)-5-chloro-2-{[2-(4-fluorophenyl)-1H-indol-3-yl]methylene}-1-benzothiophen-3(2H)-one] | > 10 |
| Cc1ccc2c(c1)C(=O)/C(=C/c1c[nH]c3ccc(OCc4ccccc4)cc13)S2 [Example 295, (2Z)-2-{[5-(benzyloxy)-1H-indol-3-yl]methylene}-5-methyl-1-benzothiophen-3(2H)-one] | > 10 |

Next, values leading:

| IC50 [µM] | SMILES |
| --- | --- |
| > 10 | COc1cccc2c1OC(=Cc1c[nH]c3ccccc13)C2=O [Example 9, 2-(1H-indol-3-ylmethylene)-7-methoxy-1-benzofuran-3(2H)-one] |
| > 10 | Cc1[nH]c2ccccc2c1/C=C1\Oc2ccccc2C1=O [Example 21, (2Z)-2-[(2-methyl-1H-indol-3-yl)methylene]-1-benzofuran-3(2H)-one] |
| 9.17 | Cc1ccc2c(c1)C(=O)/C(=C/c1c(-c3ccccc3)[nH]c3ccccc13)S2 [Example 290, (2Z)-5-methyl-2-[(2-phenyl-1H-indol-3-yl)methylene]-1-benzothiophen-3(2H)-one] |
| 1.12 | Cc1cccc2c1c(/C=C1\Oc3cc(O)cc(O)c3C1=O)c(-c1ccccn1)n2C [Compound 477, (2Z)-2-[(1,4-dimethyl-2-pyridin-2-yl-1H-indol-3-yl)methylene]-4,6-dihydroxy-1-benzofuran-3(2H)-one] |
| 2.49 | O=C1/C(=C/c2c(-c3ccc(Cl)cc3)[nH]c3ccccc23)Oc2ccccc21 [Example 17, (2Z)-2-{[2-(4-chlorophenyl)-1H-indol-3-yl]methylene}-1-benzofuran-3(2H)-one] |
| 9.75 | COc1ccc2c(c1)c(/C=C1\Oc3ccc(Br)cc3C1=O)cn2CCCN(C)C [Compound 516, (2Z)-5-bromo-2-({1-[3-(dimethylamino)propyl]-5-methoxy-1H-indol-3-yl}methylene)-1-benzofuran-3(2H)-one] |
| 10.7 | Cc1ccc2c(c1)C(=O)/C(=C/c1c[nH]c3ccccc13)S2 [Example 289, (2Z)-2-(1H-indol-3-ylmethylene)-5-methyl-1-benzothiophen-3(2H)-one] |
| 4.5 | Cn1cc(/C=C2\Oc3c(ccc(O)c3O)C2=O)c2ccccc21 [Example 57, (2Z)-6,7-dihydroxy-2-[(1-methyl-1H-indol-3-yl)methylene]-1-benzofuran-3(2H)-one] |
| 3.1 | Cn1cc(/C=C2\Sc3ccccc3C2=O)c2ccccc21 [Example 278, (2Z)-2-[(1-methyl-1H-indol-3-yl)methylene]-1-benzothiophen-3(2H)-one] |
| 3.81 | O=C1/C(=C/c2c(-c3ccc(Cl)cc3)[nH]c3ccccc23)Oc2cc(O)ccc21 [Example 26, (2Z)-2-{[2-(4-chlorophenyl)-1H-indol-3-yl]methylene}-6-hydroxy-1-benzofuran-3(2H)-one] |
| 4.56 | Cc1cccc2c(/C=C3\Sc4ccccc4C3=O)c[nH]c12 [Example 280, (2Z)-2-[(7-methyl-1H-indol-3-yl)methylene]-1-benzothiophen-3(2H)-one] |
| 9.6 | Cc1ccc2c(/C=C3\Oc4cc(O)ccc4C3=O)c[nH]c2c1 [Example 31, (2Z)-6-hydroxy-2-[(6-methyl-1H-indol-3-yl)methylene]-1-benzofuran-3(2H)-one] |
| 0.825 | COc1ccc2c(c1)c(C=C1Oc3c(ccc(O)c3O)C1=O)c(C)n2CCCCN1CCOCC1 [Example 145, 6,7-dihydroxy-2-{[5-methoxy-2-methyl-1-(4-morpholin-4-ylbutyl)-1H-indol-3-yl]methylene}-1-benzofuran-3(2H)-one] |
| 1.72 | O=C1/C(=C/c2c[nH]c3ccc(F)cc23)Oc2c1ccc(O)c2O [Example 64, (2Z)-2-[(5-fluoro-1H-indol-3-yl)methylene]-6,7-dihydroxy-1-benzofuran-3(2H)-one] |
| 2.35 | COc1cccc2c1O/C(=C\c1c(-c3ccc(F)cc3)[nH]c3ccccc13)C2=O [Example 37, (2Z)-2-{[2-(4-fluorophenyl)-1H-indol-3-yl]methylene}-7-methoxy-1-benzofuran-3(2H)-one] |
| 9.19 | Cc1ccc2c(c1)C(=O)C(=Cc1c(C)[nH]c3ccc([N+](=O)[O-])cc13)S2 [Example 298, 5-methyl-2-[(2-methyl-5-nitro-1H-indol-3-yl)methylene]-1-benzothiophen-3(2H)-one] |
| 6.47 | O=C1/C(=C/c2c[nH]c3ccc(Br)cc23)Oc2cc(O)ccc21 [Example 32, (2Z)-2-[(5-bromo-1H-indol-3-yl)methylene]-6-hydroxy-1-benzofuran-3(2H)-one] |
| 2.8 | Cn1c(-c2ccccc2)c(/C=C2\Sc3ccccc3C2=O)c2ccccc21 [Example 275, (2Z)-2-[(1-methyl-2-phenyl-1H-indol-3-yl)methylene]-1-benzothiophen-3(2H)-one] |
| 1.65 | COc1ccc2[nH]c(-c3ccccc3)c(C=C3Oc4cccc(O)c4C3=O)c2c1 [Example 79, 4-hydroxy-2-[(5-methoxy-2-phenyl-1H-indol-3-yl)methylene]-1-benzofuran-3(2H)-one] |
| 0.85 | COc1ccc2c(c1)c(C=C1Oc3c(ccc(O)c3O)C1=O)c(C)n2CCCCN1CCN(CCO)CC1 [Example 146, 6,7-dihydroxy-2-[(1-{4-[4-(2-hydroxyethyl)piperazin-1-yl]butyl}-5-methoxy-2-methyl-1H-indol-3-yl)methylene]-1-benzofuran-3(2H)-one] |
| 5.47 | O=C1/C(=C/c2c(-c3ccc4ccccc4c3)[nH]c3ccccc23)Oc2cc(O)ccc21 [Example 27, (2Z)-6-hydroxy-2-{[2-(2-naphthyl)-1H-indol-3-yl]methylene}-1-benzofuran-3(2H)-one] |
| 4.03 | Cc1c(C=C2Oc3cc(O)cc(O)c3C2=O)c2cc(F)ccc2n1C [Example 235, 2-[(5-fluoro-1,2-dimethyl-1H-indol-3-yl)methylene]-4,6-dihydroxy-1-benzofuran-3(2H)-one] |
| 9.62 | O=C1/C(=C/c2c[nH]c3ccccc23)Sc2ccccc21 [Example 273, (2Z)-2-(1H-indol-3-ylmethylene)-1-benzothiophen-3(2H)-one] |
